Series [1] relates to human lung cancer cell line A549, cervical cancer cell line Hela, colorectal cancer cell line HT-29. As to the kind of experiment: Cancer cell line growth inhibition test (WST-8 cell viability, 72 h). It is filed as cell-based. The following applies: for Cancer Cell line growth inhibition test: relative evaluation compared to doxorubicin. Here is the method: A human lung cancer cell line A549, a cervical cancer cell line Hela, and a colorectal cancer cell line HT-29 were adopted from the Korea Cell Line Bank (KCLB, Seoul, Korea) and cultured in a culture medium.
In a humidified cell culture incubator containing 5% CO2; at 37° C. using a DMEM and a 10% culture flask, fetal bovine serum (FBS), 0.1 mM MEM non-essential amino acid (NEAA), 2 mM L-glutamine, and 1% penicillin-streptomycin were trypsinized every 2 to 3 days according to the instructions provided by the KCLB to subculture the cells. The culture was cultured until reached 80% to 90% of confluence, and the cells were successively transferred to a culture flask for a cancer cell line growth inhibition test.
A cancer cell line, a human lung cancer cell line A549, a cervical cancer cell line Hela, and a colorectal cancer cell line HT-29 to be tested were seeded in a 96-well plate at about 10,000 cells per well.
After incubation, the medium was removed and the cell viability in each well was measured using a WST-8 cell viability assay kit (Quanti-Max™, BIOMAX) and according to a procedure instructed by a manufacturer.
The analysis used a principle that dehydrogenase of living cells decomposed tetrazolium salt to generate formazan, and through this, the living cells were quantitatively evaluated.
Reduced formazan salt was soluble in a cell culture medium and an amount of formazan was directly proportional to the number of living cells (Slater, T. et al. (1963) Biochem. Biophys. Acta 77:383. van de Loosdrecht, A. A., et al. J. Immunol. Methods 174: 311-320, 1994. Alley, M. C., et al. Cancer Res. 48: 589-601, 1988.).

Series [2] relates to normal lung cell line MRC-5 and normal colon CCD-18Co cell line. As to the kind of experiment: Toxicity test in normal cell line (WST-8 cell viability, 72 h). Format: cell-based. The following applies: for Normal cell line toxicity test: relative evaluation compared to doxorubicin.

“Also recorded” adds a separate entry of the source.

Consider “Fenbendazole-1,2,3,4-Tetra-β-D-fructose [FB-2]”, for which the “Cancer Cell line growth inhibition test” value in series [1] was “AA (AA represents equal (1 to 2 times))”.
The same measure, in the same setting: the entry for “Fenbendazole-1,2,3,4-Tetra-β-D-glucose [FB-1]” is “AA (AA represents equal (1 to 2 times))”.
For the substance “albendazole-1,2,3,4-Tetra-β-D-fructose [AL-2]”, the “Normal cell line toxicity test” value in series [2] is listed as “AA (AA represents little toxicity ( 1/10 times))”. The “Cancer Cell line growth inhibition test” value in series [1] was “AA (AA represents equal (1 to 2 times))”.
Consider “albendazole-1,2,3,4-Tetra-β-D-glucose [AL-1]”, for which the “toxicity to the normal cell lines” value in series [2] (FIG. 2, MRC-5, CCD-18Co, 0-100 μM, 72 hours, compared to albendazole, fenbendazole, and doxorubicin) is reported as “very weak”. For the same substance, in series [2], the “Normal cell line toxicity test” value was “AA (AA represents little toxicity ( 1/10 times))”. Also, in series [1] (FIG. 1, A549, Hela, HT-29, 0-100 μM, 72 hours, versus albendazole, fenbendazole, doxorubicin), the “cancer cell line growth inhibition efficiency” value is recorded as “most excellent; also recorded: very excellent”. Also, in series [1], the “Cancer Cell line growth inhibition test” value was “AA (AA represents equal (1 to 2 times))”.

Source of the values: US11667661B2, “Benzimidazole derivatives, preparation method thereof and use thereof as anti-cancer agent comprising the same” (BIOMETRIX TECHNOLOGY INC, priority 2020, dated 2023).
